These results are taken from patent publication US20190307732A1, “METHODS OF TREATING MITOCHONDRIAL AND METABOLIC DISORDERS” (Abraxis Bioscience, LLC, priority 2016, published 2019).

The test system of the test is S6 phosphorylation. Briefly: Inhibition of S6 phosphorylation (pS6) in IMR90 fibroblast lysates. The conditions noted are these: Homo sapiens, IMR-90; IMR90 fibroblasts; dose of 1 ng/mL; FIG. 2. It is filed as cell-based. The protocol: IMR90 fibroblasts were administered varying doses of nab-sirolimus or rapamycin. Cell lysates were used to determine inhibition of S6 phosphorylation. Presence of vimentin. S6, and phosphorylated S6 (pS6) was measured.

As a reminder, the inhibition is the drop in the measured response relative to a control, in per cent. Higher therefore signals a response far below the control. `CO[C@H]1C[C@@H]2CC[C@@H](C)[C@@](O)(O2)C(=O)C(=O)N2CCCC[C@H]2C(=O)O[C@H]([C@H](C)C[C@@H]2CC[C@@H](O)[C@H](OC)C2)CC(=O)[C@H](C)/C=C(\C)[C@@H](O)[C@@H](OC)C(=O)[C@H](C)C[C@H](C)/C=C/C=C/C=C/1C` [rapamycin] displayed an inhibition at 0.001 µg/mL of 100%.
